Experimental data taken from patent US20190110473A1, “SYNERGISTIC WEED CONTROL FROM APPLICATIONS OF PYRIDINE CARBOXYLIC ACID HERBICIDES AND PHOTOSYSTEM II INHIBITORS” (Dow AgroSciences LLC, priority 2017, published 2019).

Legend:
Assay in all cases: Greenhouse herbicidal activity, visual weed control
Format in all cases: in vivo
Settings in all cases: 20-22 d
[1] = tested on: Persian speedwell (Veronica persica; VERPE)
Procedure: (§1) Seeds of the desired test plant species were planted in Sun Gro MetroMix® 306 planting mixture, which typically has a pH of 6.0 to 6.8 and an organic matter content of about 30 percent, in plastic pots with a surface area of 103.2 square centimeters (cm^2). When required to ensure good germination and healthy plants, a fungicide treatment and/or other chemical or physical treatment was applied. The plants were grown for 7-36 days (d) in a greenhouse with an approximate 14 hour (h) photoperiod which was maintained at about 18° C. during the day and 17° C. during the night. Nutrients and water were added on a regular basis and supplemental lighting was provided with overhead metal halide 1000-Watt lamps as necessary. The plants were employed for testing when they reached the second or third true leaf stage.
(§2) An aliquot of formulated Compound 1 (100 grams acid equivalent per liter (g ae/L); emusifiable concentrate (EC)) was placed in a 25 mL glass vial and diluted in a volume of 1.25% (volume per volume (v/v)) aqueous methylated soybean seed oil to obtain a stock solution. The concentrated stock solutions were diluted with an aqueous mixture of 1.25% v/v of aqueous methylated soybean seed oil to provide the appropriate application rates. Compound requirements are based upon a 12 mL application volume at a rate of 187 liters per hectare (L/ha). Compositions of Compound 1 and the photosystem II inhibitor herbicides (propanil, amicarbazone, pyridafol, desmedipham, terbacil, or bromacil) were prepared by adding aliquot or weighted amount of the photosystem II inhibitor into the diluted solutions of Compound 1. The compositions of Compound 1 and the photosystem II inhibitor herbicides were applied to the plant material with an overhead Mandel track sprayer equipped with 8002E nozzles calibrated to deliver 187 L/ha over an application area of 0.503 square meters (m^2) at a spray height of 18 inches (43 centimeters (cm)) above average plant canopy. Control plants were sprayed in the same manner with the solvent blank.
(§3) The efficacy of each of these herbicidal compositions was then evaluated against rapeseed (Brassica napus; BRSNN), shepherd's purse (Capsella bursa-pastoris; CAPBP), common chickweed (Stellaria media; STEME), scentless mayweed (Matricaria inodora; MATIN), corn chamomile (Anthemis arvensis; ANTAR), wild chamomile (Matricaria chamomilla; MATCH), Persian speedwell (Veronica persica; VERPE), ivyleaf speedwell (Veronica hederifolia; VERHE), corn poppy (Papaver rhoeas; PAPRH), kochia (Kochia scoparia; KCHSC), and Canada thistle (Cirsium arvense; CIRAR). The treated plants and control plants were placed in a greenhouse as described above and watered by subirrigation to prevent washoff of the test compounds. After 20-22 d, the condition of the test plants as compared with that of the control plants was determined visually and scored on a scale of 0 to 100 percent where 0 corresponds to no injury and 100 corresponds to complete kill. […]
(§4) The values reported are means.

[2] = tested on: common chickweed (Stellaria media; STEME)
Procedure: as §1, §2, §3, §4

[3] = tested on: shepherd's purse (Capsella bursa-pastoris; CAPBP)
Procedure: as §1, §2, §3, §4

[4] = tested on: scentless mayweed (Matricaria inodora; MATIN)
Procedure: as §1, §2, §3, §4

[5] = tested on: ivyleaf speedwell (Veronica hederifolia; VERHE)
Procedure: as §1, §2, §3, §4

[6] = tested on: Canada thistle (Cirsium arvense; CIRAR)
Procedure: as §1, §2, §3, §4

[7] = tested on: rapeseed (Brassica napus; BRSNN)
Procedure: as §1, §2, §3, §4

[8] = tested on: kochia (Kochia scoparia; KCHSC)
Procedure: as §1, §2, §3, §4

[9] = tested on: corn poppy (Papaver rhoeas; PAPRH)
Procedure: as §1, §2, §3, §4

[10] = tested on: wild chamomile (Matricaria chamomilla; MATCH)
Procedure: as §1, §2, §3, §4

[11] = tested on: corn chamomile (Anthemis arvensis; ANTAR)
Procedure: as §1, §2, §3, §4

CC(C)c1nn(C(=O)NC(C)(C)C)c(=O)n1N [Amicarbazone, amicarbazone]
Obs (% visual control) ([1]; Amicarbazone 300 g/ha alone): 20%
Obs (% visual control) ([2]; Amicarbazone 300 g/ha alone): 20%
Obs (% visual control) ([3]; Amicarbazone 300 g/ha alone): 50%
Obs (% visual control) ([4]; Amicarbazone 300 g/ha alone): 30%
Obs (% visual control) ([5]; Amicarbazone 300 g/ha alone): 50%
Obs (% visual control) ([6]; Amicarbazone 300 g/ha alone): 50%
Obs (% visual control) ([7]; Amicarbazone 300 g/ha alone): 60%
Obs (% visual control) ([8]; Amicarbazone 300 g/ha alone): 50%
Obs (% visual control) ([9]; PAPRH, Amicarbazone 300 g/ha alone): 30%
Obs (% visual control) ([10]; Amicarbazone 300 g/ha alone): 95%
Obs (% visual control) ([11]; Amicarbazone 300 g/ha alone): 30%

CCC(C)n1c(=O)[nH]c(C)c(Br)c1=O (stereo not shown) [Bromacil, bromacil]
Obs (% visual control) ([1]; Bromacil 900 g/ha alone): 10%
Obs (% visual control) ([2]; Bromacil 900 g/ha alone): 100%
Obs (% visual control) ([3]; Bromacil 900 g/ha alone): 65%
Obs (% visual control) ([4]; Bromacil 900 g/ha alone): 100%
Obs (% visual control) ([5]; Bromacil 900 g/ha alone): 30%
Obs (% visual control) ([6]; Bromacil 900 g/ha alone): 10%
Obs (% visual control) ([7]; Bromacil 900 g/ha alone): 65%
Obs (% visual control) ([8]; Bromacil 900 g/ha alone): 97%
Obs (% visual control) ([9]; R-PAPRH, Bromacil 900 g/ha alone): 100%
Obs (% visual control) ([10]; Bromacil 900 g/ha alone): 100%
Obs (% visual control) ([11]; Bromacil 900 g/ha alone): 30%

Nc1c(F)c(-c2ccc3cc[nH]c3c2F)nc(C(=O)O)c1Cl [Compound 1]
Obs (% visual control) ([1]; Compound 1 5 g/ha alone): 70%
Obs (% visual control) ([1]; Compound 1 10 g/ha alone): 85%
Obs (% visual control) ([2]; Compound 1 5 g/ha alone): 65%
Obs (% visual control) ([2]; Compound 1 10 g/ha alone): 70%
Obs (% visual control) ([3]; Compound 1 5 g/ha alone): 65%
Obs (% visual control) ([3]; Compound 1 10 g/ha alone): 70%
Obs (% visual control) ([4]; Compound 1 5 g/ha alone): 10%
Obs (% visual control) ([4]; Compound 1 10 g/ha alone): 60%
Obs (% visual control) ([5]; Compound 1 5 g/ha alone): 75%
Obs (% visual control) ([5]; Compound 1 10 g/ha alone): 75%
Obs (% visual control) ([6]; Compound 1 5 g/ha alone): 10%
Obs (% visual control) ([6]; Compound 1 10 g/ha alone): 30%
Obs (% visual control) ([7]; Compound 1 5 g/ha alone): 40%
Obs (% visual control) ([7]; Compound 1 10 g/ha alone): 50%
Obs (% visual control) ([8]; Compound 1 5 g/ha alone): 50%
Obs (% visual control) ([8]; Compound 1 10 g/ha alone): 55%
Obs (% visual control) ([9]; PAPRH (R-PAPRH in Tables 1 and 6), Compound 1 5 g/ha alone): 75%
Obs (% visual control) ([9]; PAPRH (R-PAPRH in Tables 1 and 6), Compound 1 10 g/ha alone): 80%
Obs (% visual control) ([10]; Compound 1 5 g/ha alone): 10%
Obs (% visual control) ([10]; Compound 1 10 g/ha alone): 10%
Obs (% visual control) ([11]; Compound 1 5 g/ha alone): 10%
Obs (% visual control) ([11]; Compound 1 10 g/ha alone): 40%

CCOC(=O)Nc1cccc(OC(=O)Nc2ccccc2)c1 [Desmedipham, desmedipham]
Obs (% visual control) ([1]; Desmedipham 163 g/ha alone): 10%
Obs (% visual control) ([2]; Desmedipham 163 g/ha alone): 0%
Obs (% visual control) ([3]; Desmedipham 163 g/ha alone): 0%
Obs (% visual control) ([4]; Desmedipham 163 g/ha alone): 10%
Obs (% visual control) ([5]; Desmedipham 163 g/ha alone): 10%
Obs (% visual control) ([6]; Desmedipham 163 g/ha alone): 0%
Obs (% visual control) ([7]; Desmedipham 163 g/ha alone): 15%
Obs (% visual control) ([8]; Desmedipham 163 g/ha alone): 0%
Obs (% visual control) ([9]; PAPRH, Desmedipham 163 g/ha alone): 0%
Obs (% visual control) ([10]; Desmedipham 163 g/ha alone): 10%
Obs (% visual control) ([11]; Desmedipham 163 g/ha alone): 10%

CCC(=O)Nc1ccc(Cl)c(Cl)c1 [Propanil, propanil]
Obs (% visual control) ([1]; Propanil 840 g/ha alone): 10%
Obs (% visual control) ([2]; Propanil 840 g/ha alone): 0%
Obs (% visual control) ([3]; Propanil 840 g/ha alone): 50%
Obs (% visual control) ([4]; Propanil 840 g/ha alone): 0%
Obs (% visual control) ([5]; Propanil 840 g/ha alone): 10%
Obs (% visual control) ([6]; Propanil 840 g/ha alone): 10%
Obs (% visual control) ([7]; Propanil 840 g/ha alone): 10%
Obs (% visual control) ([8]; Propanil 840 g/ha alone): 10%
Obs (% visual control) ([9]; R-PAPRH, Propanil 840 g/ha alone): 20%
Obs (% visual control) ([10]; Propanil 840 g/ha alone): 10%
Obs (% visual control) ([11]; Propanil 840 g/ha alone): 50%

O=c1cc(Cl)[nH]nc1-c1ccccc1 [Pyridafol, pyridafol]
Obs (% visual control) ([1]; Pyridafol 195 g/ha alone): 0%
Obs (% visual control) ([2]; Pyridafol 195 g/ha alone): 0%
Obs (% visual control) ([3]; Pyridafol 195 g/ha alone): 0%
Obs (% visual control) ([4]; Pyridafol 195 g/ha alone): 10%
Obs (% visual control) ([5]; Pyridafol 195 g/ha alone): 0%
Obs (% visual control) ([6]; Pyridafol 195 g/ha alone): 0%
Obs (% visual control) ([7]; Pyridafol 195 g/ha alone): 5%
Obs (% visual control) ([8]; Pyridafol 195 g/ha alone): 0%
Obs (% visual control) ([9]; PAPRH, Pyridafol 195 g/ha alone): 0%
Obs (% visual control) ([10]; Pyridafol 195 g/ha alone): 0%
Obs (% visual control) ([11]; Pyridafol 195 g/ha alone): 0%

Cc1[nH]c(=O)n(C(C)(C)C)c(=O)c1Cl [Terbacil, terbacil]
Obs (% visual control) ([1]; Terbacil 113 g/ha alone): 30%
Obs (% visual control) ([2]; Terbacil 113 g/ha alone): 10%
Obs (% visual control) ([3]; Terbacil 113 g/ha alone): 30%
Obs (% visual control) ([4]; Terbacil 113 g/ha alone): 10%
Obs (% visual control) ([5]; Terbacil 113 g/ha alone): 60%
Obs (% visual control) ([6]; Terbacil 113 g/ha alone): 30%
Obs (% visual control) ([7]; Terbacil 113 g/ha alone): 10%
Obs (% visual control) ([8]; Terbacil 113 g/ha alone): 0%
Obs (% visual control) ([9]; PAPRH, Terbacil 113 g/ha alone): 10%
Obs (% visual control) ([10]; Terbacil 113 g/ha alone): 60%
Obs (% visual control) ([11]; Terbacil 113 g/ha alone): 0%
